PubChem BioAssay AID1259407 (Chemical Carcinogenesis Research Information System (CCRIS), 2018)
The source made the active and inactive calls. How the calls were made is not given here.

Tested on: CCRIS mutagenicity, Ames/micronucleus/aberration tests
Assay: CCRIS mutagenicity studies
[1] = Test System: AMES SALMONELLA TYPHIMURIUM, Strain/Indicator: TA98, Metabolic Activation: NONE, Method: PREINCUBATION
[2] = Test System: AMES SALMONELLA TYPHIMURIUM, Strain/Indicator: TA100, Metabolic Activation: NONE, Method: PREINCUBATION
[3] = Test System: AMES SALMONELLA TYPHIMURIUM, Strain/Indicator: TA98, Metabolic Activation: NONE
[4] = Test System: AMES SALMONELLA TYPHIMURIUM, Strain/Indicator: TA98, Metabolic Activation: NONE, Method: STANDARD PLATE
[5] = Test System: AMES SALMONELLA TYPHIMURIUM, Strain/Indicator: TA100, Metabolic Activation: NONE, Method: STANDARD PLATE

With `CCc1cc(C(N)=S)ccn1` the mutagenic call (End Point: IN VITRO CHROMOSOMAL ABERRATIONS, Test System: CHO CELLS, Metabolic Activation: NONE) was “inactive; negative; significant increase at 7 mm attributed to precipitation”, the mutagenic call (Test System: AMES SALMONELLA TYPHIMURIUM, Strain/Indicator: TA97, Metabolic Activation: HAMSTER, LIVER, S-9, AROCLOR 1254 (10%), Method: PREINCUBATION) was “inactive; negative” and the mutagenic call (Test System: AMES SALMONELLA TYPHIMURIUM, Strain/Indicator: TA97, Metabolic Activation: HAMSTER, LIVER, S-9, AROCLOR 1254 (30%), Method: PREINCUBATION) was “inactive; negative”. For the same compound, the mutagenic call (Test System: AMES SALMONELLA TYPHIMURIUM, Strain/Indicator: TA97, Metabolic Activation: NONE, Method: PREINCUBATION) was “inactive; negative”, the mutagenic call (Test System: AMES SALMONELLA TYPHIMURIUM, Strain/Indicator: TA97, Metabolic Activation: RAT, LIVER, S-9, AROCLOR 1254 (10%), Method: PREINCUBATION) was “inactive; negative” and the mutagenic call (Test System: AMES SALMONELLA TYPHIMURIUM, Strain/Indicator: TA97, Metabolic Activation: RAT, LIVER, S-9, AROCLOR 1254 (30%), Method: PREINCUBATION) was “inactive; negative”. The mutagenic call (Test System: AMES SALMONELLA TYPHIMURIUM, Strain/Indicator: TA98, Metabolic Activation: HAMSTER, LIVER, S-9, AROCLOR 1254 (10%), Method: PREINCUBATION) was “inactive; negative”, the mutagenic call (Test System: AMES SALMONELLA TYPHIMURIUM, Strain/Indicator: TA98, Metabolic Activation: HAMSTER, LIVER, S-9, AROCLOR 1254 (30%), Method: PREINCUBATION) was “inactive; negative” and the mutagenic call [1] was “inactive; negative”. The mutagenic call (Test System: AMES SALMONELLA TYPHIMURIUM, Strain/Indicator: TA98, Metabolic Activation: RAT, LIVER, S-9, AROCLOR 1254 (10%), Method: PREINCUBATION) was “inactive; negative”, the mutagenic call (Test System: AMES SALMONELLA TYPHIMURIUM, Strain/Indicator: TA98, Metabolic Activation: RAT, LIVER, S-9, AROCLOR 1254 (30%), Method: PREINCUBATION) was “inactive; negative” and the mutagenic call (Test System: AMES SALMONELLA TYPHIMURIUM, Strain/Indicator: TA100, Metabolic Activation: HAMSTER, LIVER, S-9, AROCLOR 1254 (10%), Method: PREINCUBATION) was “inactive; negative”. For the same compound, the mutagenic call (Test System: AMES SALMONELLA TYPHIMURIUM, Strain/Indicator: TA100, Metabolic Activation: HAMSTER, LIVER, S-9, AROCLOR 1254 (30%), Method: PREINCUBATION) was “inactive; negative”, the mutagenic call [2] was “inactive; negative” and the mutagenic call (Test System: AMES SALMONELLA TYPHIMURIUM, Strain/Indicator: TA100, Metabolic Activation: RAT, LIVER, S-9, AROCLOR 1254 (10%), Method: PREINCUBATION) was “inactive; negative”. For the same compound, the mutagenic call (Test System: AMES SALMONELLA TYPHIMURIUM, Strain/Indicator: TA100, Metabolic Activation: RAT, LIVER, S-9, AROCLOR 1254 (30%), Method: PREINCUBATION) was “inactive; negative”, the mutagenic call (Test System: AMES SALMONELLA TYPHIMURIUM, Strain/Indicator: TA1535, Metabolic Activation: HAMSTER, LIVER, S-9, AROCLOR 1254 (10%), Method: PREINCUBATION) was “inactive; negative” and the mutagenic call (Test System: AMES SALMONELLA TYPHIMURIUM, Strain/Indicator: TA1535, Metabolic Activation: HAMSTER, LIVER, S-9, AROCLOR 1254 (30%), Method: PREINCUBATION) was “inactive; negative”. For the same compound, the mutagenic call (Test System: AMES SALMONELLA TYPHIMURIUM, Strain/Indicator: TA1535, Metabolic Activation: NONE, Method: PREINCUBATION) was “inactive; negative”, the mutagenic call (Test System: AMES SALMONELLA TYPHIMURIUM, Strain/Indicator: TA1535, Metabolic Activation: RAT, LIVER, S-9, AROCLOR 1254 (10%), Method: PREINCUBATION) was “inactive; negative” and the mutagenic call (Test System: AMES SALMONELLA TYPHIMURIUM, Strain/Indicator: TA1535, Metabolic Activation: RAT, LIVER, S-9, AROCLOR 1254 (30%), Method: PREINCUBATION) was “inactive; negative”.

For `CCOC(=O)N(C)C`, the mutagenic call [3] was “inactive; negative”, the mutagenic call (Test System: AMES SALMONELLA TYPHIMURIUM, Strain/Indicator: TA100, Metabolic Activation: NONE) was “inactive; negative” and the mutagenic call (Test System: AMES SALMONELLA TYPHIMURIUM, Strain/Indicator: TA1535, Metabolic Activation: NONE) was “active; positive”. For the same compound, the mutagenic call (Test System: AMES SALMONELLA TYPHIMURIUM, Strain/Indicator: TA1535, Metabolic Activation: S-9, AROCLOR 1254) was “active; positive”.

For `O=[N+]([O-])c1ccc2ccc3c4ccccc4c([N+](=O)[O-])c4ccc1c2c43`, the mutagenic call (Test System: AMES SALMONELLA TYPHIMURIUM, Strain/Indicator: TA98(1,8-DNP6), Metabolic Activation: NONE) was “active; positive”, the mutagenic call (Test System: AMES SALMONELLA TYPHIMURIUM, Strain/Indicator: TA98(NR), Metabolic Activation: NONE) was “active; positive” and the mutagenic call (Test System: AMES SALMONELLA TYPHIMURIUM, Strain/Indicator: TA98(NR), Metabolic Activation: NONE, Method: PREINCUBATION) was “active; positive”. For the same compound, the mutagenic call [3] was “active; positive”, the mutagenic call [1] was “active; positive” and the mutagenic call [4] was “active; positive”. The mutagenic call [5] was “active; positive”.

For `O=[N+]([O-])c1cccc(CO)c1`, the mutagenic call [1] was “inactive; negative”, the mutagenic call [2] was “inactive; negative” and the mutagenic call (Test System: AMES SALMONELLA TYPHIMURIUM, Strain/Indicator: TA100, Metabolic Activation: RAT, LIVER, S-9, AROCLOR 1254, Method: PREINCUBATION) was “inactive; negative”.

With `C[Si](C)(C)O[Si](C)(C)C` the mutagenic call [4] was “inactive; negative”, the mutagenic call (Test System: AMES SALMONELLA TYPHIMURIUM, Strain/Indicator: TA98, Metabolic Activation: RAT LIVER S-9, AROCLOR 1254, Method: STANDARD PLATE) was “inactive; negative” and the mutagenic call [5] was “inactive; negative”. For the same compound, the mutagenic call (Test System: AMES SALMONELLA TYPHIMURIUM, Strain/Indicator: TA100, Metabolic Activation: RAT LIVER S-9, AROCLOR 1254, Method: STANDARD PLATE) was “inactive; negative”, the mutagenic call (Test System: AMES SALMONELLA TYPHIMURIUM, Strain/Indicator: TA1535, Metabolic Activation: NONE, Method: STANDARD PLATE) was “inactive; negative” and the mutagenic call (Test System: AMES SALMONELLA TYPHIMURIUM, Strain/Indicator: TA1535, Metabolic Activation: RAT LIVER S-9, AROCLOR 1254, Method: STANDARD PLATE) was “inactive; negative”. The mutagenic call (Test System: AMES SALMONELLA TYPHIMURIUM, Strain/Indicator: TA1537, Metabolic Activation: NONE, Method: STANDARD PLATE) was “inactive; negative”, the mutagenic call (Test System: AMES SALMONELLA TYPHIMURIUM, Strain/Indicator: TA1537, Metabolic Activation: RAT LIVER S-9, AROCLOR 1254, Method: STANDARD PLATE) was “inactive; negative” and the mutagenic call (Test System: AMES SALMONELLA TYPHIMURIUM, Strain/Indicator: TA1538, Metabolic Activation: NONE, Method: STANDARD PLATE) was “inactive; negative”. For the same compound, the mutagenic call (Test System: AMES SALMONELLA TYPHIMURIUM, Strain/Indicator: TA1538, Metabolic Activation: RAT LIVER S-9, AROCLOR 1254, Method: STANDARD PLATE) was “inactive; negative”, the mutagenic call (Test System: E. COLI, Strain/Indicator: P3078 POLA, Metabolic Activation: NONE, Method: SPOT TEST) was “inactive; negative” and the mutagenic call (Test System: E. COLI, Strain/Indicator: P3078 POLA, Metabolic Activation: RAT LIVER S-9, AROCLOR 1254, Method: SPOT TEST) was “inactive; negative”. The mutagenic call (Test System: E. COLI, Strain/Indicator: W3110, Metabolic Activation: NONE, Method: SPOT TEST) was “inactive; negative”, the mutagenic call (Test System: E. COLI, Strain/Indicator: W3110, Metabolic Activation: RAT LIVER S-9, AROCLOR 1254, Method: SPOT TEST) was “inactive; negative” and the mutagenic call (Test System: MOUSE LYMPHOMA, Strain/Indicator: L5178Y (TK+/TK-), Metabolic Activation: NONE, Method: SUSPENSION/PLATE) was “inactive; negative”. For the same compound, the mutagenic call (Test System: MOUSE LYMPHOMA, Strain/Indicator: L5178Y (TK+/TK-), Metabolic Activation: RAT, LIVER, S-9, Method: SUSPENSION/PLATE) was “inactive; negative”.

For `CN(C)CCOc1ccc(/C(=C(/CCCl)c2ccccc2)c2ccccc2)cc1`, the mutagenic call (End Point: IN VITRO CHROMOSOMAL ABERRATIONS, Test System: SYRIAN HAMSTER EMBRYO (SHE) CELLS, Metabolic Activation: NONE) was “active; positive (ploidy changes)”.

`c1ccc([Se][Se]c2ccccc2)cc1` was tested, and the mutagenic call (Test System: AMES SALMONELLA TYPHIMURIUM, Strain/Indicator: TA97A, Metabolic Activation: NONE, Method: PREINCUBATION) was “active; positive” and the mutagenic call (Test System: AMES SALMONELLA TYPHIMURIUM, Strain/Indicator: TA102, Metabolic Activation: NONE, Method: PREINCUBATION) was “inactive; negative”.
